BindingDB's records for PubMed 11602678 (Otsuka Maryland Research Institute, 2001)

Legend:
[1] = biological target: T1, Alpha-2A adrenergic receptor [16-465] (Rattus norvegicus, UniProt P22909)
T1 construct: 16-465
T1 sequence (P22909 whole entry): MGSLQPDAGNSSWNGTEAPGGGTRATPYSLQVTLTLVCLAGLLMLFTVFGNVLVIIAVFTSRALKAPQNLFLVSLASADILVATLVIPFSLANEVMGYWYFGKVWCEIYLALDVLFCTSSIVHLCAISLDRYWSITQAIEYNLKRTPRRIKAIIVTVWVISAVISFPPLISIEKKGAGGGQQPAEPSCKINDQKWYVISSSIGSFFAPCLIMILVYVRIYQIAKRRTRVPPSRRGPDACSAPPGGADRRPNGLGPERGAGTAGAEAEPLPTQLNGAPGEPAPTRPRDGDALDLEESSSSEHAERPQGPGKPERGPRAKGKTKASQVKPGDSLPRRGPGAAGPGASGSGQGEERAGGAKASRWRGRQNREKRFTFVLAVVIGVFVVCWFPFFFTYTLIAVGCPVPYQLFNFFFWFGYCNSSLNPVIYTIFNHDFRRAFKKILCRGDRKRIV

[2] = biological target: T2, Alpha-2C adrenergic receptor (Rattus norvegicus, UniProt P22086)
T2 sequence (P22086 whole entry): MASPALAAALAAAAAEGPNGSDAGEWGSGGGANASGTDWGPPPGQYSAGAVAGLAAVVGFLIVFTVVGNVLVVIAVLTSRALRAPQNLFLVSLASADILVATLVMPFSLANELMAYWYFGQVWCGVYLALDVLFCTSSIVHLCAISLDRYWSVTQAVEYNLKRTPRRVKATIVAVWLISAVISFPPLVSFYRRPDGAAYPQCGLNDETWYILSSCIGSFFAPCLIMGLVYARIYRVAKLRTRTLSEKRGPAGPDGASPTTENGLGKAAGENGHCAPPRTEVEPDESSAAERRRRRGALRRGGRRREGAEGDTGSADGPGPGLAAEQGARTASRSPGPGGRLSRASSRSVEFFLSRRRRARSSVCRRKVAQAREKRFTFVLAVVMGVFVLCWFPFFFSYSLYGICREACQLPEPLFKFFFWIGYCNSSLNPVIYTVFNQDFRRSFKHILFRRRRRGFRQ

Ki [1]: 3840 nM
Ki [2]: 13.7 nM
SMILES: CCC(=O)Nc1c(C)cc(C(=O)N2CCC(N(C)CCc3ccccc3)CC2)cc1C [NSC_219019]
